Reference: US11771086B2, “Pest control composition including novel iminopyridine derivative” (priority 2012, dated 2023)

Assays:
Format in all cases: in vivo
Aphis gossypii = assay: Reference Test Example 3 Pest control test of Aphis gossypii (foliar treatment, single agent); design: Aphis gossypii (Reference Test Example 3), mortality of larvae: concentration or dose not given beside the values; conditions: foliar treatment, single agent
Plutella xylostella = assay: Reference Test Example 1 Pest control test of Plutella xylostella (foliar treatment, single agent); design: Plutella xylostella (Reference Test Example 1), mortality of larvae: concentration or dose not given beside the values; conditions: foliar treatment, single agent
From the text: After an air drying process, second instar larvae were released thereto. […] Test in duplicate.

Laodelphax striatella = assay: Reference Test Example 18 Pest control test of Laodelphax striatella (wheat seedling root treatment); conditions: wheat seedling roots treated; four days after release; 20 μg/seedling
Procedure: The drug was absorbed from the roots for 72 hours, and then ten second instar larvae of Laodelphax striatella were each released thereto. […] The test was performed in duplicate.

Compound | Aphis gossypii (Reference Test Example 3), mortality of larvae (Aphis gossypii) | Plutella xylostella (Reference Test Example 1), mortality of larvae (Plutella xylostella) | Laodelphax striatella (Reference Test Example 18), mortality of larvae (Laodelphax striatella)
FC(F)C(=S)N=c1ccccn1Cc1ccc(Cl)nc1 [Compound 1-21] | 100% | 80% | 100%
FC(F)(Cl)C(=S)N=c1ccccn1Cc1ccc(Cl)nc1 [Compound 1-22] | – | 100% | 100%
FC(F)(F)C(F)(F)C(=S)N=c1ccccn1Cc1ccc(Cl)nc1 [Compound 1-23] | – | 100% | 100%
C/N=C(/N=c1\ccccn1Cc1ccc(Cl)nc1)C(F)(F)F [Compound 1-42, N-[1-((6-chloropyridin-3-yl)methyl)pyridin-2(1H)-ylidene]-2,2,2-trifluoro-N′-methylacetimidamide] | 100% | 100% | 100%
CSCCN=C(N=c1ccccn1Cc1ccc(Cl)nc1)C(F)(F)F [Compound 1-150] | 100% | 100% | 80%
O=C(/N=c1\ccccn1Cc1ccc(F)nc1)C(F)F [Compound 3-3, 2,2-difluoro-N-[1-((6-fluoropyridin-3-yl)methyl)pyridin-2(1H)-ylidene]acetamide] | 100% | 50% | 80%
O=C(N=c1ccccn1Cc1ccc(F)nc1)C(F)(F)Cl [Compound 3-4] | 100% | 100% | 100%
O=C(N=c1ccccn1Cc1ccc(F)nc1)C(F)(F)C(F)(F)F [Compound 3-5] | 55% | 100% | 80%
Fc1ccc(Cn2ccccc2=NC(=S)C(F)(F)F)cn1 [Compound 3-20] | 100% | 55% | 80%
O=C(N=c1ccccn1Cc1ccc(Br)nc1)C(F)F [Compound 4-3] | – | 100% | 100%
O=C(N=c1ccccn1Cc1ccc(Br)nc1)C(F)(F)Cl [Compound 4-4] | – | 100% | 100%
O=C(N=c1ccccn1Cc1ccc(Br)nc1)C(F)(F)C(F)(F)F [Compound 4-5] | 100% | 100% | 100%
FC(F)(F)C(=S)N=c1ccccn1Cc1ccc(Br)nc1 [Compound 4-20] | 100% | 100% | 100%
O=C(N=c1ccccn1Cc1cnc(Cl)c(F)c1)C(F)F [Compound 5-3] | – | 100% | 100%
O=C(N=c1ccccn1Cc1cnc(Cl)c(F)c1)C(F)(F)Cl [Compound 5-4] | – | 100% | 100%
Fc1cc(Cn2ccccc2=NC(=S)C(F)(F)F)cnc1Cl [Compound 5-20] | – | 100% | 100%
O=C(N=c1ccccn1Cc1cnc(Cl)nc1)C(F)F [Compound 6-3] | – | 80% | 100%
O=C(N=c1ccccn1Cc1cnc(Cl)nc1)C(F)(F)Cl [Compound 6-4] | 100% | 90% | 100%
N#Cc1cccn(Cc2ccc(Cl)nc2)c1=NC(=O)C(F)(F)F [Compound 102-2] | 100% | 10% | 100%
O=C(N=c1ccccn1Cc1ccc(Cl)nc1)C(F)(F)F [Compound P-212] | 100% | 100% | 100%
O=C(N=c1ccccn1Cc1cnc(Cl)s1)C(F)(F)F [Compound P-213] | 100% | 100% | 100%
O=C(N=c1ccc(Cl)cn1Cc1ccc(Cl)nc1)C(F)(F)F [Compound P-215] | 80% | 100% | 75%
O=C(N=c1ccc(F)cn1Cc1ccc(Cl)nc1)C(F)(F)F [Compound P-216] | 95% | 100% | 100%

Compound | Aphis gossypii (Reference Test Example 3), mortality of larvae (Aphis gossypii) | Plutella xylostella (Reference Test Example 1), mortality of larvae (Plutella xylostella) | Laodelphax striatella (Reference Test Example 18), mortality of larvae (Laodelphax striatella)
O=C(N=c1ccc(Cl)cn1Cc1cnc(Cl)s1)C(F)(F)F [Compound P-218] | 60% | 100% | –
O=C(N=c1ccc(F)cn1Cc1cnc(Cl)s1)C(F)(F)F [Compound P-219] | 85% | 80% | –
Cc1ccn(Cc2ccc(Cl)nc2)c(=NC(=O)C(F)(F)F)c1 [Compound P-222] | 100% | – | 100%
Cc1ccc(=NC(=O)C(F)(F)F)n(Cc2ccc(Cl)nc2)c1 [Compound P-223] | 75% | – | 75%
O=C(N=c1ccccn1Cc1ccc(Cl)cc1)C(F)(F)F [Compound P-225] | 90% | – | –
O=C(N=c1ccccn1Cc1cccnc1)C(F)(F)F [Compound P-226] | 100% | 60% | –
O=C(N=c1ccccn1Cc1cnc(Cl)c(F)c1)C(F)(F)F [Compound P-227] | 100% | 100% | 100%
O=C(N=c1ccccn1Cc1ccc(C(F)(F)F)nc1)C(F)(F)F [Compound P-228] | 95% | 30% | 100%
O=C(N=c1ccccn1Cc1ccc(F)nc1)C(F)(F)F [Compound P-229] | 100% | 100% | 100%
O=C(N=c1ccccn1Cc1cnc(Cl)c(Cl)c1)C(F)(F)F [Compound P-230] | 100% | 100% | –
O=C(N=c1ccccn1Cc1ccc(Br)nc1)C(F)(F)F [Compound P-231] | 100% | 100% | 100%
O=C(N=c1cc(F)ccn1Cc1ccc(Cl)nc1)C(F)(F)F [Compound P-232] | 80% | – | –
O=C(N=c1c(F)cccn1Cc1ccc(Cl)nc1)C(F)(F)F [Compound P-233] | 100% | – | 75%
O=C(N=c1ccccn1Cc1ccc(Cl)nc1)C(Cl)Cl [Compound P-234] | 100% | 100% | 100%
O=C(N=c1ccccn1Cc1ccc(Cl)nc1)C(Cl)(Cl)Cl [Compound P-235] | 95% | 100% | 75%
O=C(CCl)N=c1ccccn1Cc1ccc(Cl)nc1 [Compound P-236] | 100% | – | –
O=C(N=c1ccccn1Cc1ccc(Cl)nc1)C(F)F [Compound P-238] | 100% | 100% | 100%
O=C(N=c1ccccn1Cc1ccc(Cl)nc1)C(F)(F)Cl [Compound P-239] | 100% | 100% | 100%
O=C(N=c1ccccn1Cc1ccc(Cl)nc1)C(Cl)Br (stereo not drawn) [Compound P-240] | 100% | – | 100%
O=C(N=c1ccccn1Cc1ccc(Cl)nc1)C(Br)Br [Compound P-241] | 100% | – | 100%
O=C(N=c1ccccn1Cc1ccc(Cl)nc1)C(F)(F)C(F)(F)F [Compound P-242] | 100% | 100% | 100%
O=C(CBr)N=c1ccccn1Cc1ccc(Cl)nc1 [Compound P-244] | 100% | – | 100%
